In paper PMC10693084, “Novel 8-Methoxycoumarin-3-Carboxamides with potent anticancer activity against liver cancer via targeting caspase-3/7 and β-tubulin polymerization” (BMC Chemistry, 2023):

Key:
Format in all cases: cell-based, human
caspase-3/7 = experiment: Caspase-3/7 green flow cytometric assay in HepG2 cells; conditions: HepG2 cells treated with compound
Excerpt: Caspase-3 is a cysteine-aspartic protease protein that facilitates the enzymatic cleavage of specific target proteins. It consists of two subunits, specifically a 12-kDa subunit and a 17-kDa subunit, which are characterized by the presence of three and five thiol functions, respectively. […] The crucial involvement of the terminal caspase-3/7 activation is observed in the initiation of apoptosis and subsequent cell demise in neoplastic cells. To gain more insight into the apoptotic mode of action for compound 5, we assessed the active caspase-3/7 levels in HepG2 cells utilizing a green flow cytometric assay. […] Compared to the control group of untreated HepG2 cells, there was a remarkable 5.6-fold rise in the levels of active Caspase-3/7 upon treatment with compound 5. […] These findings provide valuable insights into the potential mechanism of action of compound 5 as an anti-cancer agent. Activation of Caspase-3/7 is a pivotal step in the apoptotic pathway, leading to the programmed destruction of cancer cells. […]
The HepG2 cell line was subjected to treatment with compound 5, and subsequently, an analysis was conducted using the Cell Event caspase-3/7 green flow assay. […] Subsequently, the cells were assessed utilizing the BD FACS CALIBER flow cytometer.

HepG2 cells [1] = experiment: Cell cycle analysis by flow cytometry (PI); conditions: HepG2, 0.9 µM (IC50), 24 h
Experimental: Next, our investigations focused on evaluating the effects of compound 5 on the cell cycle of HepG2 cells utilizing flow cytometric analysis. The cells were treated with compound 5 at a concentration corresponding to the IC50 value and the cell cycle distribution was then analyzed, and the results were compared with untreated control cells. […] Conversely, there was a notable increase in the cellular population at the G2/M and pre-G1 phases. […] These findings indicate that compound 5 induces a notable arrest in cell growth during the […] phase. The flow cytometric analysis of HepG2 cells treated with compound 5 provided valuable insights into its effects on the cell cycle distribution. […] The G0/G1 phase is the resting phase, where cells prepare for DNA replication and cell division, while the S phase is where DNA replication occurs. […] This is a critical control point where the cell ensures that DNA replication is complete and free from errors before entering mitosis. […] The most remarkable finding was the dramatic rise in the pre-G1 population upon treatment with compound 5. The pre-G1 phase is associated with cells undergoing apoptosis, which is a programmed cell death process. […] This implies that the treatment with compound 5 leads to the activation of apoptotic pathways, causing the cells to undergo DNA fragmentation and degradation, ultimately leading to cell death. […] G2/M arrest prevents cells from progressing through the cell cycle, while apoptosis eliminates the damaged or aberrant cells. These combined effects may contribute to the compound's potent anti-cancer activity against HepG2 cells.
The quantification of DNA content in the cell cycle analysis was performed using a FACS Calibur flow cytometer at a wavelength of 488 nm, following the guidelines provided by the manufacturer. […] Following the completion of the treatment, the cells underwent two rounds of washing and were subsequently resuspended in phosphate-buffered saline (PBS). Following the washing step, a volume of 0.7 ml of absolute ethanol was subsequently introduced, and the mixture was incubated at a temperature of -20 °C for a duration of 20 min. Following the washing step, a volume of 500 μl of RNase was introduced, and subsequently, the mixture was incubated for a duration of 30 min. Next, the addition of PI was carried out, followed by a 30-min incubation period, during which exposure to light was carefully avoided.

HepG2 cells [2] = experiment: Annexin V-FITC/PI apoptosis screening; conditions: HepG2, IC50 concentration, 24 h
Excerpt: Next, we have conducted Annexin V-FITC/PI screening to further investigate the impact of compound 5 on the growth of HepG2 cells and comprehensively analyze programmed cell death. The Annexin V-FITC/PI assay is a widely used method to differentiate between apoptotic and necrotic cells based on their membrane integrity and phospholipid exposure. […] The results from the Annexin V-FITC/PI screening provide crucial insights into the mode of action of compound 5 in inducing cell death in HepG2 cells. Annexin V-FITC is a marker that binds specifically to phosphatidylserine (PS), a phospholipid that becomes externalized on the cell membrane during early apoptosis. Propidium iodide (PI) is a dye that can penetrate cells with compromised membranes, typically found in late-stage apoptosis or necrosis. […] This is important since apoptosis is a highly regulated process, and its induction is a favorable outcome for anti-cancer therapies, as opposed to necrosis, which is often associated with cell death caused by injury or external damage. Overall, these findings from the Annexin V-FITC/PI screening support the ability of compound 5 to induce apoptosis in HepG2 cells and its lack of significant induction of necrosis reinforce its potential as a promising candidate for anti-cancer therapy.
Apoptosis detection in HepG-2 cells was conducted utilizing the BioVision® annexin‐V‐FITC apoptosis detection kit in accordance with the instructions provided by the manufacturer. The quantification of apoptosis was performed using a FACS Calibur flow cytometer, with a wavelength of 488 nm. In a concise manner, a total of 1–5 × 10^5 cells were obtained through the process of centrifugation. The cells were subsequently exposed to compound 5 at concentrations corresponding to its IC50 value for a duration of 24 h. Following this treatment, the cells were resuspended in a binding buffer solution with a volume of 500 μl. The addition of Annexin-V-FITC and PI was performed. Subsequently, the specimens were subjected to incubation at ambient temperature for a duration of 5 min, while being shielded from light. The analysis of Annexin-V-FITC binding was conducted utilizing a dedicated signal detector.

Structure (SMILES): COc1ccc(Br)c2cc(C(N)=O)c(=O)oc12 [Compound 5, 5-Bromo-8-methoxycoumarin-3-carboxamide]
- rise in levels of active Caspase-3/7 vs untreated HepG2 cells (caspase-3/7): 5.6 fold
- percentage of cells in pre-G1 phase (HepG2 cells [1]; untreated 2.08%): 45.88%
- percentage of cells in G2/M phase (HepG2 cells [1]; untreated 15.38%): 31.51%
- percentage of cells in S phase (HepG2 cells [1]; untreated 34.91%): 27.4%
- percentage of cells in G0/G1 phase (HepG2 cells [1]; untreated 49.71%): 41.09%
- fold increase of early apoptosis vs control (HepG2 cells [2]): 42 fold
- fold increase of late-stage apoptosis vs control (HepG2 cells [2]): 100 fold
- fold increase of necrosis vs untreated (HepG2 cells [2]): threefold
- fold increase of programmed cell death vs untreated (HepG2 cells [2]): 22 fold
- percentage of cells in late-stage apoptosis (HepG2 cells [2]; control 0.22%): 22.16%
- percentage of cells undergoing early apoptosis (HepG2 cells [2]; control 0.46%): 19.51%
- percentage of cells undergoing necrosis (HepG2 cells [2]; untreated 1.4%): 4.21%
- total percentage of programmed cell death (HepG2 cells [2]; untreated 2.08%): 45.88%
